Assay results taken from patent US20200268703A1, “MEDICINE FOR TREATING ADVANCED OR RECURRENT CANCER PATIENT BEING NON-RESPONSIVE OR NON-TOLERANT TO STANDARD CHEMOTHERAPY AND INCURABLE AND UNRESECTABLE” (HYOGO COLLEGE OF MEDICINE, priority 2017, published 2020).

Key:
[1] = test system: advanced or recurrent oral cavity cancer; experiment: Tumor immunity risk index value, OS and disease course in oral cavity cancer patients given propagermanium; type: in vivo, human; settings: for OS: BSC median 46 days
Method: (§1) 30 mg of propagermanium [trade name: SEROCION (registered trademark), produced by SANWA KAGAKU KENKYUSHO CO., LTD.] was administered orally in three divided doses per day after meals to 4 patient cases (PG-1 to PG-4) who were diagnosed as advanced or recurrent oral cavity cancer which is non-responsive or non-tolerant to the standard chemotherapy and incurable and unresectable, a 2 patient cases (PG-5 and PG-6) who were diagnosed as advanced or recurrent gastric cancer which is non-responsive or non-tolerant to the standard chemotherapy [gastric cancer treatment guideline fourth edition (edited by Japan Gastric cancer Association, revised in May 2014)] and incurable and unresectable, and 5 healthy person cases (PG-7 to PG-11). 7.5 mL of peripheral blood of the cancer patients (PG-1 and PG-3: only before administration, PG-5 and PG-6: before administration and only 28th day after a start of administration) and healthy persons (all: only before the administration), were collected by a BD vacutainer blood collection tube at the time before the administration of the propagermanium and on 28th and 56th days after starting the administration. Thereafter, and the peripheral blood was centrifuged (1500 G for 15 minutes) to obtain the peripheral blood mononuclear cells (PBMC). The obtained peripheral blood mononuclear cells were fixed and stained using a T cell surface marker and a mouse IgG anti-human antibody against intracellular keratin. The stained cells were analyzed by flow cytometry using a Spectral Cell Analyzer (SP-6800, manufactured by SONY).
(§2) Regarding the T cells and the cytotoxic T cells, among living cells, CD45 positive and CD3 positive cells are separated to obtain T cells, and among the CD45 positive and CD3 positive cells, CD8 positive and CD4 negative cells are separated to obtain the cytotoxic T cells. The proportion of the cytotoxic T cells in the T cells was calculated.
(§3) In the circulating tumor cells in blood, in order to label the cytokeratin present inside the cells, after using Perm Buffer reagent (#421403, produced by BioLegend), staining was performed using a pankeratin antibody (#4523, produced by Cell Signaling). Since the circulating tumor cells in blood are larger than lymphocytes, when flow cytometry is performed, cells were selected in a wider range than in the selection of normal lymphocytes. After selecting cells negative in staining using Ghost Dye Violet 450 as living cells, pankeratin positive cells were regarded as the circulating tumor cells in blood, and the number of the pankeratin positive cells in 10000 peripheral blood mononuclear cells was calculated.
(§4) The calculated number of the pankeratin positive cells and the proportion of cytotoxic T cells in the T cells is substituted into Expression (1) below.
(§5) Number of pankeratin positive cells (pieces)/Proportion of cytotoxic T cells in T cells (%)/10 (I)
(§6) The disease of each patient was determined by an attending physician based on results of endoscopy, computed tomography (CT) examination, positron emission tomography (PET)-CT examination, magnetic resonance imaging (MRI) examination, X-ray (X-P) examination, and blood biochemistry examination including the major markers.

[2] = test system: advanced or recurrent gastric cancer; experiment: Tumor immunity risk index value and disease course in gastric cancer patients given propagermanium; type: in vivo, human; settings: for Disease course / Tumor immunity risk index value: 28th day after starting administration
Method: as §1, §2, §3, §4, §5, §6

[3] = test system: human gastric cancer cell line MKN45 (MKN45 KO cells); experiment: Apoptosis-inducing activity by PBMC of oral cavity cancer patient after administration of propagermanium; type: cell-based; settings: for Increase of apoptosis-inducing activity compared to before starting the administration: time point of 48 hours
Method: MKN45 KO cells obtained by fluorescently labeling human gastric cancer cell line MKN45 with Kurabira Orange (1×10^4 cells) were cultured using an RPMI 1640 medium containing 10% FBS in 35 mm dishes (Day 0). On next day (Day 1), the medium was changed to an F12-K medium (2 mL) containing 10% FBS, and in Experimental Example 5, a suspension of peripheral blood mononuclear cells (1×10^6 cells) separated from peripheral blood of the oral cavity cancer patient of PG-4 before the administration of the propagermanium and on 28th and 56th days after the administration in F12-K medium (1 mL) is added to the culture dish. Furthermore, 3 μL of IncuCyte (registered trademark) Caspase-3/7 Green Apoptpsis Reagent (Cat No. 4440, produced by Essen BioScience) was added and cultured. Time-lapse photography was performed every 10 minutes for 48 hours, by using BioStation (produced by Nikon Corporation) (Days 1 to 3). An animation was created from result of photography for 48 hours, and the numbers of viable gastric cancer cells (with orange fluorescence) at and apoptosis-induced gastric cancer cells (with green fluorescence) at the time points of 0, 8, 16, 24, 32, 40, and 48 hours were calculated respectively. When calculating the number of cells, 100 to 150 cells were targeted at time point of 48 hours, and cells of 4 to 5 fields of view were summed at 200 times observation by a microscope at each time point. In addition, at each time point, only cells that adhered to the culture dish and could be continuously observed were targeted for counting, and cells that were slightly out of an imaging field of stratified cells were excluded from counting.
The apoptosis-inducing activity (%) at each time point was calculated by using Expression (II) below.
{Number of apoptosis-induced gastric cancer cells/(Number of viable gastric cancer cells+Number of apoptosis-induced gastric cancer cells)}×100 (II)

[4] = patient PG-2 (oral cavity cancer)

For propagermanium, the “Evaluation of the administration (effective / ineffective)” value (from here on “Evaluation … (effective / ineffective)”) ([1]; patient PG-1 (oral cavity cancer)) was “ineffective”, the OS ([1]; patient PG-1 (oral cavity cancer), administration discontinued midway) was 39 days and the Disease course ([1]; patient PG-1 (oral cavity cancer), from the start of administration) was “disease got worse”. For the same substance, the “Evaluation … (effective / ineffective)” value [1, 4] was “effective”, the Disease course ([1]; patient PG-2 (oral cavity cancer), 28th day after starting administration) was “disease was controlled” and the “Tumor immunity risk index value” ([1]; patient PG-2 (oral cavity cancer), 28th day after starting administration, before 0.27) was 1.70. The “Tumor immunity risk index value” ([1]; patient PG-2 (oral cavity cancer), 56th day after starting administration, before 0.27) was 4.93, the OS [1, 4] was 105 days and the “Evaluation … (effective / ineffective)” value ([1]; patient PG-3 (oral cavity cancer)) was “ineffective”. For the same substance, the OS ([1]; patient PG-3 (oral cavity cancer), administration discontinued midway) was 36 days, the Disease course ([1]; patient PG-3 (oral cavity cancer), from the start of administration) was “disease got worse” and the “Evaluation … (effective / ineffective)” value ([1]; patient PG-4 (oral cavity cancer)) was “effective”. The Disease course ([1]; patient PG-4 (oral cavity cancer), 28th and 56th days after starting administration) was “disease was controlled at any time point”, the “Tumor immunity risk index value” ([1]; patient PG-4 (oral cavity cancer), 28th day after starting administration, before 2.07) was 0.49 and the “Tumor immunity risk index value” ([1]; patient PG-4 (oral cavity cancer), 56th day after starting administration, before 2.07) was 1.77. The OS ([1]; patient PG-4 (oral cavity cancer), counted before the chemotherapy intervention) was 85 days, the “Evaluation … (effective / ineffective)” value ([2]; patient PG-5 (gastric cancer)) was “ineffective” and the Disease course ([2]; patient PG-5 (gastric cancer)) was “disease progressed”. The “Tumor immunity risk index value” ([2]; patient PG-5 (gastric cancer), before 5.04) was 9.55, the “Evaluation … (effective / ineffective)” value ([2]; patient PG-6 (gastric cancer)) was “effective” and the Disease course ([2]; patient PG-6 (gastric cancer)) was “disease was controlled”. The “Tumor immunity risk index value” ([2]; patient PG-6 (gastric cancer), before 41.12) was 0.31, the “Increase of apoptosis-inducing activity compared to before starting the administration” value ([3]; 28th day after starting administration) was “approximately 3.1 times” and the “Increase of apoptosis-inducing activity compared to before starting the administration” value ([3]; 56th day after starting administration) was “approximately 3.7 times”. It also gave an Apoptosis-inducing activity ([3]; PBMC of patient PG-4, 28th day after starting administration, culture for 0 hours) of 0.00%, an Apoptosis-inducing activity ([3]; PBMC of patient PG-4, 28th day after starting administration, culture for 48 hours, before administration 4.00) of 12.50% and an Apoptosis-inducing activity ([3]; PBMC of patient PG-4, 56th day after starting administration, culture for 0 hours) of 0.00%. The Apoptosis-inducing activity ([3]; PBMC of patient PG-4, 56th day after starting administration, culture for 48 hours, before administration 4.00) was 14.60%.
